According to US20250171414A1, “COMPOUND SERVING AS MASP-2 INHIBITOR, PHARMACEUTICAL COMPOSITION, PREPARATION METHOD THEREFOR, AND USE THEREOF” (WUHAN CREATERNA SCIENCE AND TECHNOLOGY CO., LTD., priority 2022, published 2025):

Each molecule was assayed on lectin pathway (MBL) in human serum (assay: Inhibition of activity of lectin pathway (MBL) in human serum (WIESLAB Complement System MBL Pathway kit)). Details: 1% human serum.
Format: biochemical
Description: The inhibition of the activity of the lectin pathway (MBL) in human serum by compounds was detected using a WIESLAB® Complement System MBL Pathway kit (SVAR, COMPLMP320). Test compounds were each serially diluted in a buffer (Diluent MP), and 1% human serum was incubated with the diluted compound solution for 15 min at room temperature. 100 μL of the mixture was added to a microplate and incubated at 37° C. for 60 min. The liquid in the wells was discarded, and the microplate was washed three times with a washing solution. A Conjugate antibody solution was added at 100 μL/well, and the resulting mixture was incubated for 30 min at 25° C. The liquid in the wells was discarded, and the microplate was washed three times with a washing solution; a substrate solution was added at 100 μL/well, and the resulting mixture was incubated for 30 min at 25° C.; the terminator was added at 50 μL/well, and the absorbance at 405 nm was detected within 30 min by using a microplate reader.
Molecule Cc1cc(C2=C[C@@H](C(=O)N[C@@H](C)C(=O)N[C@@H]3CCc4nc(N)ccc43)NCC2)ccc1F (single isomer, unassigned) [Compound L071-IS-02] has an IC50 of 7.85 nM. C[C@H](NC(=O)[C@H]1CC(c2cccc(F)c2)CCN1)C(=O)NC1CCc2nc(N)ccc21 (stereo in doubt) [Compound L039-IS-02, (2R,4S)-N-((2S)-1-((2-amino-6,7-dihydro-5H-cyclopenta[b]pyridin-5-yl)amino)-1-oxopropan-2-yl)-4-(3-fluorophenyl)piperidine-2-carboxamide] gave an IC50 of 2.36 nM. Molecule Cc1ccc(C[C@@H]2CN[C@@H](C(=O)N[C@@H](C)C(=O)NC3CCc4nc(N)ccc43)C2)cc1 (stereo partly drawn) [Compound L004, (2R,4S)—N-((2S)-1-((2-amino-6,7-dihydro-5H-cyclopenta[b]pyridin-5-yl)amino)-1-oxopropan-2-yl)-4-(4-methylbenzyl) pyrrolidine-2-carboxamide] has an IC50 of 12.8 nM. With CC(c1ccccc1)[C@H]1CN[C@@H](C(=O)N[C@@H](C)C(=O)NC2CCc3nc(N)ccc32)C1 (stereo partly drawn) [Compound L009, (2R,4S)—N-((2S)-1-((2-amino-6,7-dihydro-5H-cyclopenta[b]pyridin-5-yl)amino)-1-oxopropan-2-yl)-4-(1-phenylethyl) pyrrolidine-2-carboxamide] the IC50 was 7.08 nM. For Cc1cc(C[C@@H]2CN[C@@H](C(=O)N[C@@H](C)C(=O)NC3CCc4nc(N)ccc43)C2)ccn1 (stereo partly drawn) [Compound L011, (2R,4S)—N-((2S)-1-((2-amino-6,7-dihydro-5H-cyclopenta[b]pyridin-5-yl)amino)-1-oxopropan-2-yl)-4-((2-methylpyridin-4-yl)methyl) pyrrolidine-2-carboxamide], the IC50 was 7.55 nM. Molecule C[C@H](NC(=O)[C@H]1C[C@H](Cc2nc3cc(Cl)ccc3s2)CN1)C(=O)NC1CCc2nc(N)ccc21 (stereo partly drawn) [Compound L013, (2R,4R)—N-((2S)-1-((2-amino-6,7-dihydro-5H-cyclopenta[b]pyridin-5-yl)amino)-1-oxopropan-2-yl)-4-((5-chlorobenzo[d]thiazol-2-yl)methyl) pyrrolidine-2-carboxamide] has an IC50 of 6.62 nM. In the case of COc1cc2ccccc2cc1C[C@@H]1CN[C@@H](C(=O)N[C@@H](C)C(=O)NC2CCc3nc(N)ccc32)C1 (stereo partly drawn) [Compound L015, (2R,4S)—N-((2S)-1-((2-amino-6,7-dihydro-5H-cyclopenta[b]pyridin-5-yl)amino)-1-oxopropan-2-yl)-4-((3-methoxynaphthalen-2-yl)methyl) pyrrolidine-2-carboxamide], the IC50 is reported as 1.99 nM. Work on Cc1cccc(C[C@@H]2CN[C@@H](C(=O)N[C@@H](C)C(=O)NC3CCc4nc(N)ccc43)C2)c1 (stereo partly drawn) [Compound L016, (2R,4S)—N-((2S)-1-((2-amino-6,7-dihydro-5H-cyclopenta[b]pyridin-5-yl)amino)-1-oxopropan-2-yl)-4-(3-methylbenzyl) pyrrolidine-2-carboxamide] yielded an IC50 of 4.64 nM. With C[C@H](NC(=O)[C@H]1C[C@H](C2(c3ccccc3)CC2)CN1)C(=O)NC1CCc2nc(N)ccc21 (stereo partly drawn) [Compound L017, (2R,4R)—N-((2S)-1-((2-amino-6,7-dihydro-5H-cyclopenta[b]pyridin-5-yl)amino)-1-oxopropan-2-yl)-4-(1-phenylcyclopropyl) pyrrolidine-2-carboxamide] the IC50 was 6.96 nM. Work on C[C@H](NC(=O)c1cc(-c2ccccc2)c[nH]1)C(=O)N[C@@H]1CCc2nc(N)ccc21 [Compound L020-IS-01, N—((S)-1-(((R)-2-amino-6,7-dihydro-5H-cyclopenta[b]pyridin-5-yl)amino)-1-oxopropan-2-yl)-4-phenyl-1H-pyrrole-2-carboxamide] yielded an IC50 of 15 nM. Work on C[C@H](NC(=O)C1CC(c2ccccc2)CCN1)C(=O)NC1CCc2nc(N)ccc21 (stereo partly drawn) [Compound L021, N-((2S)-1-((2-amino-6,7-dihydro-5H-cyclopenta[b]pyridin-5-yl)amino)-1-oxopropan-2-yl)-4-phenylpiperidine-2-carboxamide] yielded an IC50 of 3.75 nM. In the case of C[C@H](NC(=O)[C@H]1C[C@@H](c2ccccc2)CCN1)C(=O)NC1CCc2nc(N)ccc21 (stereo partly drawn) [Compound L021-IS-01, (2R,4S)—N-((2S)-1-((2-amino-6,7-dihydro-5H-cyclopenta[b]pyridin-5-yl)amino)-1-oxopropan-2-yl)-4-phenylpiperidine-2-carboxamide], the IC50 is reported as 0.26 nM. For C[C@H](NC(=O)[C@H]1CN(Cc2ccccc2)CCN1)C(=O)NC1CCc2nc(N)ccc21 (stereo partly drawn) [Compound L024, (2R)—N-((2S)-1-((2-amino-6,7-dihydro-5H-cyclopenta[b]pyridin-5-yl)amino)-1-oxopropan-2-yl)-4-benzylpiperazine-2-carboxamide], the IC50 was 6.34 nM. For C[C@H](NC(=O)[C@H]1CN(c2cccc3ccccc23)CCN1)C(=O)NC1CCc2nc(N)ccc21 (some centres unmarked) [Compound L025], the IC50 was 5.52 nM. For Nc1ccc2c(n1)CCC2NC(=O)[C@@H]1CCCN1C(=O)[C@H]1C[C@H](Cc2ccc(F)cc2)CN1 (stereo partly drawn) [Compound L031, (2S)—N-(2-amino-6,7-dihydro-5H-cyclopenta[b]pyridin-5-yl)-1-((2R,4S)-4-(4-fluorobenzyl)pyrrolidine-2-carbonyl) pyrrolidine-2-carboxamide], the IC50 was 4.49 nM. C[C@H](NC(=O)[C@H]1C[C@@H](c2ccc(F)cc2)CCN1)C(=O)NC1CCc2nc(N)ccc21 (stereo partly drawn) [Compound L033-IS-02, (2R,4S)—N-((2S)-1-((2-amino-6,7-dihydro-5H-cyclopenta[b]pyridin-5-yl)amino)-1-oxopropan-2-yl)-4-(4-fluorophenyl) piperidine-2-carboxamide] was tested, and the IC50 was 2.26 nM. For C[C@H](NC(=O)[C@H]1C[C@@H](c2ccccc2F)CCN1)C(=O)NC1CCc2nc(N)ccc21 (stereo partly drawn) [Compound L038-IS-02, (2R,4S)—N-((2S)-1-((2-amino-6,7-dihydro-5H-cyclopenta[b]pyridin-5-yl)amino)-1-oxopropan-2-yl)-4-(2-fluorophenyl) piperidine-2-carboxamide], the IC50 was 4.76 nM. Molecule C[C@H](NC(=O)[C@H]1C[C@@H](c2cccc(C(F)(F)F)c2)CCN1)C(=O)NC1CCc2nc(N)ccc21 (stereo partly drawn) [Compound L044-IS-02, (2R,4S)-N-((2S)-1-((2-amino-6,7-dihydro-5H-cyclopenta[b]pyridin-5-yl)amino)-1-oxopropan-2-yl)-4-(3-(trifluoromethyl)phenyl)piperidine-2-carboxamide] has an IC50 of 1.83 nM. With C[C@H](NC(=O)[C@H]1C[C@@H](c2ccc(F)c(F)c2)CCN1)C(=O)NC1CCc2nc(N)ccc21 (stereo partly drawn) [Compound L045-IS-02, (2R,4S)-N-((2S)-1-((2-amino-6,7-dihydro-5H-cyclopenta[b]pyridin-5-yl)amino)-1-oxopropan-2-yl)-4-(3,4-difluorophenyl)piperidine-2-carboxamide] the IC50 was 4.11 nM. C[C@H](NC(=O)[C@H]1C[C@@H](c2cccc(OC(F)(F)F)c2)CCN1)C(=O)NC1CCc2nc(N)ccc21 (stereo partly drawn) [Compound L046-IS-02, (2R,4S)-N-((2S)-1-((2-amino-6,7-dihydro-5H-cyclopenta[b]pyridin-5-yl)amino)-1-oxopropan-2-yl)-4-(3-(trifluoromethoxy)phenyl)piperidine-2-carboxamide] was tested, and the IC50 was 3.71 nM. With C[C@H](NC(=O)[C@H]1C[C@@H](c2ccc(F)cc2F)CCN1)C(=O)NC1CCc2nc(N)ccc21 (stereo partly drawn) [Compound L047-IS-02, (2R,4S)-N-((2S)-1-((2-amino-6,7-dihydro-5H-cyclopenta[b]pyridin-5-yl)amino)-1-oxopropan-2-yl)-4-(2,4-difluorophenyl)piperidine-2-carboxamide] the IC50 was 3.06 nM. C[C@H](NC(=O)[C@H]1C[C@@H](c2cccc(F)c2F)CCN1)C(=O)NC1CCc2nc(N)ccc21 (stereo partly drawn) [Compound L048-IS-02, (2R,4S)-N-((2S)-1-((2-amino-6,7-dihydro-5H-cyclopenta[b]pyridin-5-yl)amino)-1-oxopropan-2-yl)-4-(2,3-difluorophenyl)piperidine-2-carboxamide] showed an IC50 of 6.08 nM. Molecule Nc1ccc2c(n1)CC[C@H]2NC(=O)[C@H]1[C@H]2C[C@H]2CN1C(=O)[C@H]1C[C@H](Cc2ccc(F)cc2)CN1 [Compound L055-IS-02, (1S,2R,5R)—N—((R)-2-amino-6,7-dihydro-5H-cyclopenta [b]pyridin-5-yl)-3-((2R,4S)-4-(4-fluorobenzyl)pyrrolidine-2-carbonyl)-3-azabicyclo[3.1.0]hexane-2-carboxamide] has an IC50 of 7 nM. In the case of C[C@H](NC(=O)[C@@H]1C=C(c2ccc(F)c(C(F)(F)F)c2)CCN1)C(=O)N[C@@H]1CCc2nc(N)ccc21 [Compound L070-IS-02, (S)-N-((S)-1-(((R)-2-amino-6,7-dihydro-5H-cyclopenta[b]pyridin-5-yl)amino)-1-oxopropan-2-yl)-4-(4-fluoro-3-(trifluoromethyl)phenyl)-1,2,5,6-tetrahydropyridine-2-carboxamide], the IC50 is reported as 17.6 nM. Molecule C[C@H](NC(=O)[C@@H]1C=C(c2ccc(F)c(Cl)c2)CCN1)C(=O)N[C@@H]1CCc2nc(N)ccc21 [Compound L072-IS-02, (S)-N-((S)-1-(((R)-2-amino-6,7-dihydro-5H-cyclopenta[b]pyridin-5-yl)amino)-1-oxopropan-2-yl)-4-(3-chloro-4-fluorophenyl)-1,2,5,6-tetrahydropyridine-2-carboxamide] has an IC50 of 9.26 nM. C[C@H](NC(=O)[C@@H]1C=C(c2ccc(F)cc2C(F)(F)F)CCN1)C(=O)N[C@@H]1CCc2nc(N)ccc21 [Compound L073-IS-02, (S)-N-((S)-1-(((R)-2-amino-6,7-dihydro-5H-cyclopenta[b]pyridin-5-yl)amino)-1-oxopropan-2-yl)-4-(4-fluoro-2-(trifluoromethyl)phenyl)-1,2,5,6-tetrahydropyridine-2-carboxamide] showed an IC50 of 4.25 nM.
